The values below come from patent EP0042553B1, “Antitumor compositions” (Bristol-Myers Company, priority 1980, dated 1981).

Where a name gives a salt, the structure may show the parent alone.

The conditions of data set [1]: prior art statement; cited from earlier work.
A short description of data set [2]: Compatibility with ions in aqueous solution. Type of data set: physicochemical. The note with it: insoluble precipitates form. On the procedure: The solid compositions (all three types) provided according to the present invention are reconstituted with sterile water or sterile aqueous vehicle. The preferred unit dosage forms described above may, for example, be reconstituted with one milliliter of sterile water or sterile aqueous vehicle to form relatively concentrated m-AMSA solutions or such solutions may be diluted to form more dilute (e.g. 5 mg/ml m-AMSA activity) solutions. […] Reconstitution, therefore, should be effected with vehicles substantially free of the above-mentioned ions.
Caution: Solutions of m-AMSA are incompatible with chloride, sulfate, phosphate and carbonate ions. Precipitates form.

For data set [3], the system named is animal tumor systems. The note with it: Cain, et al., Europ. J. Cancer 10:539-549 (1974); cited from earlier work.
A short description of data set [4]: Solubility in water. Type of data set: physicochemical.
Data set [5] is described as follows: Stability / clarity of reconstituted aqueous solution. Type of data set: physicochemical. The protocol: Stability: 15 mg salt was reconstituted with 10 ml sterile water.
The product salt may be reconstituted with water to give a 5-7.5 mg/ml solution which remains clear at 17°C for at least 6 hours.
(§1) The above mixture can be rapidly (<3 min.) reconstituted with sterile water. The 50 mg/ml solution and 1, 2, 5 and 10 mg/ml dilutions remain clear for at least 24 hours at 15-20°C.
(§2) The above mixture is made according to the general procedure of Example 5.

The nature of data set [6]: Reconstitution time with water. Type of data set: physicochemical. The following applies: 5, 7.5 and 10 mg/ml; at 24°C (75°F). On the procedure: Reconstituted aqueous solutions of 5, 7.5 and 10 mg/ml were readily obtained with 3 minutes shaking at 24°C (75°F). Solubility of the salt in water at room temperature is at least 15 mg/ml.
as §1, §2

With `COc1cc(NS(C)(=O)=O)ccc1Nc1c2ccccc2nc2ccccc12.Cl` [monohydrochloride], in data set [1], the “solubility in water (in words)” value is given as “insufficiently water-soluble”.
Regarding `COc1cc(NS(C)(=O)=O)ccc1Nc1c2ccccc2nc2ccccc12` [m-AMSA, 4'-(9-acridinylamino)-methanesulfon-m-anisidide], the “compatibility in aqueous solution with chloride, sulfate, phosphate and carbonate ions” value in data set [2] is listed as “incompatible”. Further, the “solubility in water (in words)” value in data set [1] was “very limited”. In addition, the antitumor activity result in data set [3] is listed as “significant antitumor activity”.
For orientation: solubility means the dissolved amount per volume that the medium holds. A lower solubility goes with a poorly soluble substance. Regarding `COc1cc(NS(C)(=O)=O)ccc1Nc1c2ccccc2nc2ccccc12` [Preparation 6, Crystalline DL-Monolactate acetone solvate of m-AMSA], the solubility in data set [4] (at room temperature) was at least 15 mg/mL. The “time solution remains clear” value in data set [5] (5-7.5 mg/ml solution in water at 17°C) is reported as “at least 6 hours”. Further, the “shaking time to obtain reconstituted aqueous solutions” value in data set [6] was found to be 3 min.
As for `COc1cc(NS(C)(=O)=O)ccc1Nc1c2ccccc2nc2ccccc12` [Preparation 4, Crystalline L(+)-Monolactate hemiacetonate of m-AMSA], the activity loss in data set [5] (15 mg salt in 10 ml sterile water, after 2 weeks storage at 45°C) is under 6%. For the same compound, the “Stability: time the solution was stable” value in data set [5] (15 mg salt reconstituted with 10 ml sterile water) is “at least 24 hours”.
Regarding `COc1cc(NS(C)(=O)=O)ccc1Nc1c2ccccc2nc2ccccc12.CS(=O)(=O)O` [monomethanesulfonate], the “solubility in water (in words)” value in data set [1] is given as “insufficiently water-soluble”.
Turning to `COc1cc(NS(C)(=O)=O)ccc1Nc1c2ccccc2nc2ccccc12` [Preparation 9, Crystalline m-AMSA monogluconate salt], the solubility in data set [4] (at 50-60°C) turned out to be 30 mg/mL.
